The record followed here is patent US9463338B2, “Derivatives of the sinapinic acid” (PHARMASYNTHESE, priority 2013, dated 2016).

Data set [1] in a line: ORAC (Oxygen Radical Absorbance Capacity) antioxidant activity. Format: biochemical. The settings on record: for antioxidant activity in comparison with trolox: ORAC. The source says:
The ORAC (Oxygen Radical Absorbance Capacity) method, described in Cao, G., Alessio, H. M., Cutler, R. G. Free radical Biology & Medecine 1993, 14: 303-311<<Oxygen-Radical Absorbance Capacity assay for antioxydants>> and Benderitter, M., Vincent-Genid, L., Pouget, J. P., Voisin, P. Radiation Research 2003; 159 (4): 471-483 <<The cell membrane as a biosensor of oxydative stress induced by radiation exposure:multiparameter investigation>>, has been used for measuring the anti-oxidant capability of the compounds of the invention.
By convention, the ORAC antioxidant activity of any molecule is measured in comparison with a recognized reference which is an analog of vitamin E, the trolox (6-hydroxy-2,5,7,8-tetramethylchroman-2-carboxylic acid), the anti-oxidant capability of 1 μM (micro mole) of trolox corresponding to 1 ORAC unit.
The ORAC values are commonly reported in μmol TE/g (in micromole of Trolox Equivalent per gram of product to be tested).
Given these definitions, the trolox has an ORAC index of about 3995 units.
The ORAC values of the compounds 26 and 34 have been measured (average of 3 measurements).

In general, melting point refers to the temperature, or range, at which the solid turns liquid. `COc1cc(/C=C/C(=O)NCCCc2ccccc2)cc(OC)c1OC(C)=O` [Compound 26, 4-acetoxy-3,5-dimethoxy-N-(3-phenylpropyl)-cinnamamide] showed a melting point of 132 °C. In addition, in data set [1], the “antioxidant activity in comparison with trolox” value is on record as “slightly higher”.
`COc1ccc2[nH]cc(CCNC(=O)/C=C/c3cc(OC)c(OC(C)=O)c(OC)c3)c2c1` [Compound 31, 4-acetoxy-3,5-dimethoxy-N-(5-methoxytryptamyl)-cinnamamide] had a melting point of 148 °C. Moreover, the “ORAC Antioxidant activity” value in data set [1] (average of 3 measurements) came out at 4874 ± 216 μmol TE/g.
In the case of `COc1cc(/C=C/C(=O)NC2CC2)cc(OC)c1OC(C)=O` [Compound 34], the “antioxidant activity in comparison with trolox” value in data set [1] was 5 times.
Regarding `COc1cc(/C=C/C(=O)NCC(O)c2ccc(O)cc2)cc(OC)c1OC(C)=O` (centres unmarked) [Compound 39], in data set [1] (average of 3 measurements), the “ORAC Antioxidant activity” value is reported as 20968 ± 992 μmol TE/g.
In the case of `Cc1c(C)c2c(c(C)c1O)CCC(C)(C(=O)O)O2` (centres unmarked) [Trolox, 6-hydroxy-2,5,7,8-tetramethylchroman-2-carboxylic acid, reference compound], the ORAC index entry in data set [1] (reference, given the definitions) is “about 3995 units”. For the same molecule, the “ORAC Antioxidant activity” value in data set [1] (reference, value follows from the definition of the ORAC unit) is 3995 μmol TE/g.
